One experiment has as its target BRD4(BD1) (Homo sapiens (Human), UniProt O60885). In words: In vitro enzyme inhibition assay (BRD4 AlphaScreen). Type of experiment: binding. Particulars: in vitro enzyme inhibition assay. The gist of the method: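 AlphaScreen proximity readout, using streptavidin donor and Ni-chelate acceptor beads at 5 μg/mL final, monitors biotin-H4 tetraacetylated peptide interaction with purified His-tagged BRD4.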
A general note: Alpha assays give light when donor and acceptor beads are brought close together.

Experiment [1] deals with Raji, human Burkitts lymphoma cells. Nature of the experiment: Cell-MTS proliferation assay, Raji. Particulars: Homo sapiens, Cell-MTS proliferation, 168 hr. Type of experiment: cell-based. In outline: (§1)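 Seven-day colorimetric MTS assay; compound at 11 concentrations from 100 μM down to 2.0 nM final, added a day after plating. IC50 from OD490 normalised to DMSO controls.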
Background: Formazan colour is commonly taken as a measure of viable cells.

Experiment [2] deals with HL-60, human proleukemia cells. In words: Cell-MTS proliferation assay, HL-60. Type of experiment: cell-based. Particulars: Homo sapiens, Cell-MTS proliferation, 168 hr. In outline:
as §1

For experiment [3], the system named is NCI-H460, human non-small cell lung cancer cells. Nature of the experiment: Cell-MTS proliferation assay, NCI-H460. Type of experiment: cell-based. Particulars: Homo sapiens, Cell-MTS proliferation, 168 hr. In outline:
as §1

For the compound `Cn1cc(-c2ncc3c(=O)n(C)cc(-c4cc(S(C)(=O)=O)ccc4OCC4CC4)c3n2)cn1` [Example 224, 8-[2-(cyclopropylmethoxy)-5-methylsulfonylphenyl]-6-methyl-2-(1-methylpyrazol-4-yl)pyrido[4,3-d]pyrimidin-5-one], the IC50 against BRD4(BD1) is below 500 nM; in experiment [1] (Raji), below 500 nM; in experiment [2] (HL-60) it was below 500 nM; in experiment [3] (NCI-H460), above 5000 nM.

On to `Cn1cc(-c2cn(CS(C)(=O)=O)c(=O)cc2Oc2ccc(F)cc2F)c2ccccc2c1=O` [Example 387, 4-[4-(2,4-difluorophenoxy)-1-(methylsulfonylmethyl)-6-oxopyridin-3-yl]-2-methylisoquinolin-1-one], for which the IC50 was below 500 nM against BRD4(BD1), below 500 nM in experiment [1] (Raji cells), below 500 nM in experiment [2] (HL-60 cells) and above 5000 nM in experiment [3] (NCI-H460 cells).

For `CCS(=O)(=O)Cc1ccc(Oc2ccc(F)cc2F)c(-c2cn(C)c(=O)c3cncn23)c1` [Example 369, 5-[2-(2,4-difluorophenoxy)-5-(ethylsulfonylmethyl)phenyl]-7-methylimidazo[1,5-a]pyrazin-8-one], the IC50 on BRD4(BD1) was below 500 nM; in experiment [1] (Raji), 500 to 5000 nM; in experiment [2] (HL-60) it was below 500 nM; in experiment [3] (NCI-H460), above 5000 nM.

As usually defined, the IC50 is the concentration that gives 50% inhibition. Low readings indicate greater potency, high ones weaker potency.

For the origin of these results see US10023592B2, “Bromodomain inhibitors” (Celgene Quanticel Research, Inc., priority 2013, dated 2018).
